One assay has as its target GPR142 (Mus musculus (Mouse), UniProt Q7TQN9). Briefly: Intraperitoneal Glucose Tolerance Tests (IPGTT). The conditions noted are these: male C57BL/6 mice; for ED50 / ED80: oral dosing 30 minutes prior to i.p. glucose challenge (2 g/kg), glucose AUC lowering; for considered positive in the assay (reduction in glucose AUC, P<0.05): oral dosing, IPGTT. It is filed as in vivo. On the procedure: Intraperitoneal Glucose Tolerance Tests (IPGTT)
IPGTT assay is used to examine the ability of exemplified compounds to activate GPR142 in vivo resulting in anti-diabetic efficacy, i.e. reduction in plasma glucose levels. Male C57BL/6 mice (8-10 weeks of age) are fed normal rodent chow diet and water ad libitum. On the night before the study, animals are fasted overnight in clean cages. On the morning of the study, animals are dosed orally with vehicle or compound at the indicated doses 30 minutes prior to the glucose challenge (2 g/kg) by intraperitoneal injection. Blood glucose levels are determined from tail bleeds taken immediately prior to compound dosing (−30 min) and 0, 15, 30, and 60 min after glucose challenge using handheld glucometers. Plasma is isolated from tail bleeds taken at 7 min after glucose challenge and used to determine insulin levels by the Rat/Mouse Insulin Elisa kit (Millipore) or MA6000 Mouse/Rat Insulin Kit (MSD). The blood glucose profile from t=0 to t=60 min is used to calculate an area under the curve (AUC) for each treatment. Percent lowering in glucose AUC is calculated for each treatment group with respect to the AUC of vehicle group. A compound with a reduction in glucose AUC (P<0.05) is considered positive in the assay.

The target in another assay is human GPR142 (Homo sapiens (Human), UniProt Q7Z601). The experiment in a line: GPR142 Agonist Effect as Measured by IP-1 Assay. It is filed as cell-based. As to conditions: HEK293 cells expressing human GPR142, Mean ± SEM; for Efficacy: IP-1 assay; for EC50: IP-One HTRF, read-out: hGPR142 IP1 EC50. On the procedure: GPR142 Agonist Effect as Measured by IP-1 Assay
Chain of human GPR142 (Q7Z601 whole entry): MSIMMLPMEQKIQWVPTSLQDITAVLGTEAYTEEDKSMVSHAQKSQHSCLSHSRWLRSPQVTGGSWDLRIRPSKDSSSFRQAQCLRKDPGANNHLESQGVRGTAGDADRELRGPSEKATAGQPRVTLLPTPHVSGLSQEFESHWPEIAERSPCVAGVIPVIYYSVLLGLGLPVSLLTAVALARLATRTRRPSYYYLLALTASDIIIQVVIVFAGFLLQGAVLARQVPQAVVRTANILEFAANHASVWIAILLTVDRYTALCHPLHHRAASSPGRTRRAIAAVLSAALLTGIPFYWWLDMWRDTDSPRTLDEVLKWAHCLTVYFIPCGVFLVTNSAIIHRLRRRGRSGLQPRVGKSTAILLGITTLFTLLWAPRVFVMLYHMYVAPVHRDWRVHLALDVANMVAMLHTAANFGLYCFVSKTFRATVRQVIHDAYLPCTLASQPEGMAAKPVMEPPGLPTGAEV
The purpose of this assay is to detect GPR142 agonist effect.
HEK293 cells expressing human GPR142 are maintained in DMEM supplemented with 10% FBS and 800 μg/ml G418 (Geneticin®) at 37° C. and 5% CO2. The cells are plated in 384 well plates at 5000 cells per well and allowed 18 hours for attachment. After addition of compounds at varying concentrations ranging from 30 μM to 1 nM, cells are incubated for 1 hr. IP-1 measurements are performed using an IP-One HTRF® assay kit (Cisbio) according to manufacturer's protocol using assay buffer containing 1×HBSS (+Ca, +Mg), 0.1% BSA, 50 mM LiCl and 20 mM HEPES, pH 7.2. The reaction is stopped by addition of IP1-d2 (IP-1 coupled to an organic HTRF acceptor) followed by cryptate solution (http://www.htrf.com/usa/htrf-chemistry). The plates are incubated at 25° C. for 1 hr. Fluorescence is read in an Envision instrument at 665 nm and 620 nm wavelength. The ratio of 665 nm/620 nm is calculated and converted to IP-1 levels using an IP-1 standard curve. The data is fit to a 4 parameter-fit logistics to determine EC50 values.

Here are results for three molecules from patent publication US10196385B2, “Tetrahydropyranyl benzamide derivatives” (Eli Lilly and Company, priority 2015, dated 2019).

One may read the EC50 as the concentration giving half of the maximal effect.

Chain of GPR142 (Q7TQN9 whole entry): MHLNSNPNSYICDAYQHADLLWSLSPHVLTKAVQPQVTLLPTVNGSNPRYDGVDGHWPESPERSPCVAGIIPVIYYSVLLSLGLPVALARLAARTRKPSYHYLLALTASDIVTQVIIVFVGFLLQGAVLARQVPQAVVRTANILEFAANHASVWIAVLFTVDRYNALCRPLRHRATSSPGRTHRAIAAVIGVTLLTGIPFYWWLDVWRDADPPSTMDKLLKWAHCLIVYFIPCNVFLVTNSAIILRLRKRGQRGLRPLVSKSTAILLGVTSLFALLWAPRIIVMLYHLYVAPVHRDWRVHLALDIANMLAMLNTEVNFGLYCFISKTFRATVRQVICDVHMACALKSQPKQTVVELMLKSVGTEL

Take `Cc1ncn(C)c1-c1nnc([C@@H]2C[C@H](N(C)C(=O)c3cccc(C(F)(F)F)c3)CCO2)[nH]1` (single isomer, unassigned; isomer 1) [Example 1, Cis-(chiral)-N-[(2-[5-(1,4-Dimethyl-1H-imidazol-5-yl)-4H-1,2,4-triazol-3-yl]tetrahydro-2H-pyran-4-yl]-N-methyl-3-(trifluoromethyl)benzamide, Isomer 1]: at GPR142, the ED50 is reported as 0.30 mpk; the ED80 is recorded as 1.6 mpk; the “considered positive in the assay (reduction in glucose AUC, P<0.05)” value is given as “positive”. At human GPR142, the Efficacy is reported as 109 ± 3, n = 12% and the EC50 is 43.5 ± 7.9 nM.
Regarding `Cc1ncn(C)c1-c1nnc([C@@H]2C[C@H](N(C)C(=O)c3cccc(OC(F)(F)F)c3)CCO2)[nH]1` (single isomer, unassigned; isomer 1) [Example 2, Cis-(chiral)-N-[2-[5-(1,4-Dimethyl-1H-imidazol-5-yl)-4H-1,2,4-triazol-3-yl]tetrahydro-2H-pyran-4-yl]-N-methyl-3-(trifluoromethoxy)benzamide, Isomer 1], on GPR142, the ED50 amounted to 0.24 mpk; the ED80 was found to be 1.6 mpk; the “considered positive in the assay (reduction in glucose AUC, P<0.05)” value is “positive”. Further, at human GPR142, the Efficacy is 110 ± 2, n = 11% and the EC50 came to 30.1 ± 4.2 nM.
As to `Cc1ncn(C)c1-c1nnc([C@@H]2C[C@H](N(C)C(=O)c3cccc(Cl)c3)CCO2)[nH]1` (single isomer, unassigned; isomer 1) [Example 3, Cis-(chiral)-3-Chloro-N-[2-[5-(1,4-dimethyl-1H-imidazol-5-yl)-4H-1,2,4-triazol-3-yl]tetrahydro-2H-pyran-4-yl]-N-methyl-benzamide, Isomer 1], at human GPR142, the Efficacy is 112 ± 3, n = 7% and the EC50 came out at 27.2 ± 4.8 nM.
